Data as given in paper PMC6152084, “Synthesis of New Hydrazone Derivatives for MAO Enzymes Inhibitory Activity” (Molecules : A Journal of Synthetic Chemistry and Natural …, 2017).
Marks after values point to notes of the source that are not given here.

Tests used:
hMAO-A = target: T1, hMAO-A (Homo sapiens, UniProt P21397); assay: Enzyme kinetics (Lineweaver-Burk plots, tyramine substrate); assay type: biochemical; settings: for type of inhibition of hMAO-A: Lineweaver-Burk plot
T1 construct: purchased Sigma-Aldrich (Steinheim, Germany)
T1 sequence (P21397 1-527): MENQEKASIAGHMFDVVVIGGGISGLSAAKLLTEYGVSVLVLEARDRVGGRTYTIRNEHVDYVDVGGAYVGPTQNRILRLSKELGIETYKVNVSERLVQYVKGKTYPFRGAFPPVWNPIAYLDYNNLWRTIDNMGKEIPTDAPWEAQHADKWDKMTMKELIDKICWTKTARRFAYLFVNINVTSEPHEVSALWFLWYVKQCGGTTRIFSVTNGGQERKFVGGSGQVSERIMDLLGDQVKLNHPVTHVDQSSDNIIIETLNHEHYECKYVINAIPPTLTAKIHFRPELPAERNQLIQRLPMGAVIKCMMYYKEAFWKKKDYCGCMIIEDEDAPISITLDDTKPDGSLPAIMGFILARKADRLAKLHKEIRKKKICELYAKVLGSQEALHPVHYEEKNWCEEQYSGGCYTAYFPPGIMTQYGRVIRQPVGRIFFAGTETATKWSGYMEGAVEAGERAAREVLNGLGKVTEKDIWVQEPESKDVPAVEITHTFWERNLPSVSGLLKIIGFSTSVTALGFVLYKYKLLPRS
Protocol: The mechanism of hMAO-A inhibition was investigated by enzyme kinetics, following a similar procedure to the MAO inhibition assay. The linear Lineweaver-Burk graphics were used to estimate the type of inhibition. […] In each case, the initial velocity measurements were gained at different substrate (tyramine) concentrations ranging from 20 μM to 0.625 μM. The Ki (intercept on the x-axis) values of compounds 2a and 2b were determined from the secondary plot of the Km/Vmax (slope) versus varying concentrations.
Based on the type of interaction with the enzyme, inhibitor binding can be classified as either reversible or irreversible. The type of inhibition can be determined by the Lineweaver-Burk plot as mixed-type, uncompetitive, competitive, or noncompetitive, which are the indicators of a reversible inhibitor [23]. It is known that in the uncompetitive type inhibition a graphic, including the parallel lines without any cross, is observed. If the lines cross neither the x- nor the y-axis at the same point the inhibition type is called mixed-type. Noncompetitive inhibition is seen if the plots intersect on the x-axis. There are different slopes and intercepts on the y-axis. On the other hand, competitive inhibition gives the opposite situation. This type of inhibition has plots with the same intercept on the y-axis but there are diverse slopes and intercepts on the x-axis, which are observed in Figure 2 and Figure 3.
The same materials were used as in the MAO inhibition assay. […] The solutions of inhibitor (20 μL/well) and enzyme were added to the flat black bottom 96-well micro test plate, and incubated at 37 °C for 30 min. After incubation period, the working solution, including various concentrations (20, 10, 5, 2.5, 1.25, and 0.625 μM) of tyramine (100 μL/well) was added. The increase of the fluorescence (Ex/Em = 535/587 nm) was recorded for 30 min. A parallel experiment was carried out without inhibitor. All processes were assayed in quadruplicate. The results were analyzed as Lineweaver-Burk plots using Microsoft Office Excel 2013. The Km/Vmax (slope) values of the Lineweaver-Burk plots were replotted versus the inhibitor concentration, and the Ki values were determined from the x-axis intercept as −Ki.

[1] = system: Salmonella typhimurium TA100; assay: Ames MPF genotoxicity test, TA100; assay type: cell-based; settings: for mutagenicity classification against TA100: with/without metabolic activation (S9)
Protocol: An Ames MPF assay was performed to investigate the genotoxicity of the compounds 2a and 2b.
The genotoxicity of the compounds was determined by Ames assay as previously described using the Ames MPF 98/100 mutagenicity test sample kit (Xenometrix AG, Allschwil, Switzerland). This test was performed with Salmonella typhimurium strains TA98 (frameshift mutations) and TA100 (base-pair substitutions). Compounds was prepared in six different concentrations (5, 2.5, 1.25, 0.625, 0.3125, 0.156 mg/mL) which was between […] and 5000 µg/mL according to the previous guidelines in DMSO. In order to detect mutagenic potential, test performed with and without Aroclor™-1254 induced male Sprague-Dawley rat liver microsomal enzyme (S9) mix (Xenometrix AG). While the positive control for TA 98 without S9 mix was 2-nitrofluorene (2 μg/mL), 1 μg/mL of 2-aminoanthracene was positive control with S9 against TA 98. For TA100, 4-nitroquinoline N-oxide (0.1 μg/mL) was positive control without S9 mix and 2.5 μg/mL of 2-aminoanthracene was positive control. 4% DMSO solution was the solvent control. At the end of the experiment, revertant bacteria decreased the pH of solution and indicator medium colour was changed to yellow. Yellow wells were counted as positive and compared with the negative control. Fold induction over the negative control and fold induction over the baseline were calculated. Fold induction over the negative control is the ratio of the mean number of positive wells for the dose concentration divided by the mean number of positive wells for the zero dose (negative) control. Fold induction over the baseline is the ratio of the mean number of positive wells for the dose concentration divided by zero dose baseline. The zero dose baseline is obtained by adding one standard deviation to the mean number of positive wells of the zero dose control. Mutagenity was determined according to the criteria from previous studies. For a baseline value ≤ 3, significant increases between 2 and 3-fold the baseline were classified as weak mutagen, increases ≥ 3-fold the baseline were classified as mutagen. For a baseline was > 3, significant increases between 1.5 and 2.5-fold the baseline were classified as weak mutagen, and increases ≥ 2.5-fold the baseline, were classified as mutagen. In principle, for a mutagenic compound, at least two adjacent doses with significant increase or a significant increase at the highest dose level should be observed. All doses were compared according to Student’s t-test at p < 0.05 as statistically.

Row | SMILES | Vmax value of the competitive inhibition (hMAO-A) [nmol/min/mg protein] | type of inhibition of hMAO-A (hMAO-A) | Ki (hMAO-A; secondary plot of Km/Vmax (slope) versus inhibitor concentration, read-out: Ki for the inhibition of hMAO-A) [nM] | Revertants Fold Increase (Over Baseline) ([1]; TA 100, S9+, 0.156 mg/mL) | Revertants Fold Increase (Over Baseline) ([1]; TA 100, S9+, 0.3125 mg/mL) | Revertants Fold Increase (Over Baseline) ([1]; TA 100, S9+, 0.625 mg/mL) | Revertants Fold Increase (Over Baseline) ([1]; TA 100, S9+, 1.25 mg/mL) | Revertants Fold Increase (Over Baseline) ([1]; TA 100, S9+, 2.5 mg/mL) | Revertants Fold Increase (Over Baseline) ([1]; TA 100, S9+, 5 mg/mL) | Revertants Fold Increase (Over Baseline) ([1]; TA 100, S9−, 0.156 mg/mL) | Revertants Fold Increase (Over Baseline) ([1]; TA 100, S9−, 0.3125 mg/mL) | Revertants Fold Increase (Over Baseline) ([1]; TA 100, S9−, 0.625 mg/mL) | Revertants Fold Increase (Over Baseline) ([1]; TA 100, S9−, 1.25 mg/mL) | Revertants Fold Increase (Over Baseline) ([1]; TA 100, S9−, 2.5 mg/mL) | Revertants Fold Increase (Over Baseline) ([1]; TA 100, S9−, 5 mg/mL) | Fold-inductions over baseline ([1]; TA100, absence and presence of S9, each concentration) | mutagenicity classification against TA100 [1] | Fold-inductions over baseline ([1]; TA100 with S9, each concentration)
1 | CC1CCCCN1c1ccc(/C=N/Nc2ccccc2)cc1 (stereo not drawn) [Compound 2a, 1-(4-(2-Methypiperidin-1-yl)benzylidene)-2-phenylhydrazine] | 85.517 ± 2.332 | reversible and competitive | 188 | 0.99 | 0.69 | 0.91 | 0.95 | 0.39 | 0.82 | 0.44 | 0.63 | 0.24 * | 0.19 * | 0.05 * | 0.00 * | less than 1.5 | not genotoxic | 
2 | CN1CCN(c2ccc(C=NNc3ccccc3)cc2)CC1 [Compound 2b, 1-(4-(4-Methylpiperazine-1-yl)benzylidene)-2-phenylhydrazine] | 79.360 ± 5.704 | reversible and competitive |  | 1.46 * | 1.40 | 1.46 | 0.79 | 0.12 * | 0.00 * | 0.40 | 0.17 * | 0.06 * | 0.03 * | 0.00 * | 0.00 * |  | non-mutagenic | ≤ 1.5
